Source: patent US20220348662A1, “USE OF FGFR INHIBITORS IN FGFR-GENETICALLY ALTERED CANCERS TO ENHANCE PATIENT RESPONSE TO IMMUNE CHECKPOINT INHIBITORS IN SEQUENTIAL TREATMENT SETTINGS” (JANSSEN PHARMACEUTICA NV, priority 2019, published 2022)

What was measured:
[1] = test system: advanced urothelial carcinoma; conditions: luminal 1 subtype compared with other bladder cancer subtypes; cited from earlier work
[2] = test system: CD38+ T cells in peripheral blood; experiment: BLC2002 phase 1b immune cell profiling of blood by flow cytometry (T cell activation); assay type: in vivo, human; conditions: FIG. 4c; E8RJ cohort at C1D15, erdafitinib treatment alone (run-in)
Description: Blood for immune cell profiling were collected at four time points (C1D1, C1D15, C2D1 and C3D1) and subjected to flow cytometry analysis on a real time basis. T cell activation is quantified as fold increase in the proportions of 1) CD38+CD3, CD38+CD4, or CD38+CD8 T cells out of lymphocytes or CD3 T cell populations, and 2) CD38+ cells out of CD4+ or CD8+T cell populations, compared to the baseline proportion levels at C1D1.
Longitudinal blood samples were analyzed from DL2A (E8J cohort: Erda 8 mg+cetrelimab 240 mg), DL2B (E8RJ cohort: Erda 8 mg 28 days run-in +cetrelimab 240 mg), and DL2 (EJ cohort: Erda 8 mg with the potential dose adjustments to 9 mg depending on phosphate levels measured on C1D15+cetrelimab 240 mg).

Molecule	response rate by bladder cancer molecular subtype [1]	proportion of CD38+CD8 T cells compared to baseline C1D1 [2]
nivolumab: checkpoint inhibitor; antibody that blocks the interaction between PD-1 and PD-L1	lowest response rate	–
atezolizumab: checkpoint inhibitor; antibody that blocks the interaction between PD-1 and PD-L1	lowest response rate	–
COc1cc(OC)cc(N(CCNC(C)C)c2ccc3ncc(-c4cnn(C)c4)nc3c2)c1 [erdafitinib, N-(3,5-dimethoxyphenyl)-N′-(1-methylethyl)-N-[3-(1-methyl-1H-pyrazol-4-yl)quinoxalin-6-yl]ethane-1,2-diamine]	–	dramatically increased
